Data taken from the supplement of paper PMC10331698.
± gives the standard deviation of the averaged measurements.

Legend:
[1] = compound: OCC(F)(F)OC(F)(F)C(F)(F)OC(F)(F)C(F)(F)OC(F)(F)CO [1H,1H,11H,11H-Perfluorotetraethylene glycol] (in DMSO); assay: level (log10 ratio to DMSO vehicle control); higher = higher biomarker level / cell amount than vehicle control
Experimental: (§1)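 BioMAP Diversity Plus panel of 12 human primary cell co-culture systems (3C, 4H, LPS, SAg, BT, BF4T, BE3C, CASM3C, HDF3CGF, KF3CT, MyoF, Mphg). Compounds were added 1 h before stimulation and left for 24 h (MyoF 48 h; BT 72 h for soluble read-outs or 6 d for IgG). Biomarkers were read by ELISA, cytotoxicity by SRB, PBMC viability and proliferation by Alamar Blue. Each well value was divided by the mean of 8 DMSO control wells on the same plate and log10 transformed; duplicate blinded samples were tested at 4 concentrations.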

[2] = compound: O=C(O)C(F)(OC(F)(F)C(F)(OC(F)(F)C(F)(OC(F)(F)C(F)(F)C(F)(F)F)C(F)(F)F)C(F)(F)F)C(F)(F)F [Perfluoro-(2,5,8-trimethyl-3,6,9-trioxadodecanoic)acid] (in DMSO); assay: as above
Experimental: as §1

Row | Test System | level (log10) ([1]; 6700 nM) | level (log10) ([1]; 20000 nM) | level (log10) ([1]; 60000 nM) | level (log10) ([2]; 1100 nM) | level (log10) ([2]; 3300 nM) | level (log10) ([2]; 10000 nM)
1 | BF4T:MMP-9 | -0.007 ± 0.013 | -0.004 ± 0.013 | -0.0405 ± 0.033 | 0.0045 ± 0.015 | -0.003 ± 0.0028 | 0.0135 ± 0.00071
2 | SAg:PBMC Cytotoxicity | -0.023 ± 0.034 | 0.008 ± 0.016 | -0.002 ± 0.033 | 0.002 ± 0.04 | 0.024 ± 0.027 | -0.0095 ± 0.07
3 | 3C:HLA-DR | -0.0055 ± 0.049 | -0.001 ± 0.023 | -0.047 ± 0.028 | -0.0045 ± 0.0078 | -0.002 ± 0.0057 | 0.0115 ± 0.013
4 | 3C:CXCL9/MIG | 0.0095 ± 0.022 | 0.0065 ± 0.026 | 0.012 ± 0.0028 | 0.0125 ± 0.0078 | -0.0035 ± 0.021 | 0.007 ± 0.0071
5 | LPS:CD142/Tissue Factor | -0.0455 ± 0.016 | -0.0665 ± 0.0064 | -0.0575 ± 0.07 | 0.0115 ± 0.013 | -0.011 ± 0.021 | 0.022 ± 0.0085
6 | BE3C:CD54/ICAM-1 | -0.004 ± 0.011 | 0.012 ± 0.0099 | -0.048 ± 0.0099 | 0.0115 ± 0.037 | 0.0145 ± 0.033 | 0.0295 ± 0.033
7 | SAg:CD62E/E-Selectin | -0.009 ± 0.042 | -0.0455 ± 0.0078 | -0.276 ± 0.062 | -0.02 ± 0.0014 | -0.031 ± 0.02 | 0.008 ± 0.042
8 | SAg:Proliferation | -0.0355 ± 0.074 | -0.0455 ± 0.00071 | -0.126 ± 0.016 | 0.009 ± 0.041 | 0.0425 ± 0.0035 | 0.0335 ± 0.016
9 | BF4T:CXCL8/IL-8 | -0.0155 ± 0.026 | -0.0265 ± 0.026 | -0.0245 ± 0.03 | 0.0365 ± 0.0078 | 0.034 ± 0.024 | 0.034 ± 0.016
10 | BT:Secreted IgG | -0.093 ± 0.0099 | -0.135 ± 0.0071 | -0.374 ± 0.055 | 0.0215 ± 0.049 | 0.0315 ± 0.013 | 0.0065 ± 0.021
11 | 3C:SRB | 0.003 ± 0.0071 | -0.0185 ± 0.013 | -0.079 ± 0.033 | -0.0025 ± 0.005 | -0.0065 ± 0.0035 | 0.003 ± 0.0071
12 | BF4T:tPA | -0.036 ± 0.0028 | -0.0685 ± 0.043 | -0.201 ± 0.035 | -0.012 ± 0.02 | -0.012 ± 0.0042 | -0.0035 ± 0.021
13 | BT:sIL-6 | -0.025 ± 0.014 | -0.101 ± 0.048 | -0.302 ± 0.017 | -0.0085 ± 0.07 | 0.0025 ± 0.053 | 0.038 ± 0.013
14 | BF4T:Keratin 8/18 | -0.0025 ± 0.012 | -0.005 ± 0.0057 | -0.0335 ± 0.015 | 0.024 ± 0.0099 | 0.0055 ± 0.022 | 0.018 ± 0.0099
15 | BF4T:SRB | -0.0035 ± 0.0021 | -0.0065 ± 0.0021 | -0.0345 ± 0.033 | -0.0035 ± 0.00071 | -0.0035 ± 0.011 | 0.003 ± 0.023
16 | BF4T:CCL26/Eotaxin-3 | 0.0395 ± 0.025 | -0.013 ± 0.021 | -0.0675 ± 0.0064 | -0.026 ± 0.018 | 0.009 ± 0.025 | 0.034 ± 0.021
17 | BT:sTNF-alpha | 0.0045 ± 0.066 | -0.033 ± 0.09 | -0.234 ± 0.044 | -0.0445 ± 0.052 | -0.028 ± 0.021 | 0.0375 ± 0.079

Row | Test System | level (log10) ([1]; 6700 nM) | level (log10) ([1]; 20000 nM) | level (log10) ([1]; 60000 nM) | level (log10) ([2]; 1100 nM) | level (log10) ([2]; 3300 nM) | level (log10) ([2]; 10000 nM)
18 | LPS:sPGE2 | 0.032 ± 0.034 | 0.0965 ± 0.0078 | 0.056 ± 0.011 | 0.0385 ± 0.032 | 0.011 ± 0.031 | -0.012 ± 0.047
19 | BE3C:CXCL10/IP-10 | -0.012 ± 0.0028 | -0.0315 ± 0.021 | -0.167 ± 0.028 | 0.035 ± 0.024 | 0.0325 ± 0.015 | 0.036 ± 0.0071
20 | BF4T:MMP-3 | 0.0035 ± 0.016 | 0.012 ± 0.0028 | -0.011 ± 0.013 | -0.01 ± 0.0014 | -0.01 ± 0.014 | 0.015 ± 0.017
21 | 4H:CD87/uPAR | 0.001 ± 0.082 | -0.0065 ± 0.053 | 0.0315 ± 0.012 | 0.001 ± 0.027 | -0.0025 ± 0.011 | 0.0075 ± 0.0092
22 | SAg:CXCL8/IL-8 | -0.0225 ± 0.069 | -0.061 ± 0.072 | -0.209 ± 0.005 | -0.0095 ± 0.028 | -0.0265 ± 0.037 | 0.0195 ± 0.026
23 | 4H:CCL26/Eotaxin-3 | -0.0255 ± 0.0064 | -0.017 ± 0.044 | 0.0375 ± 0.028 | 0.0005 ± 0.0078 | -0.0095 ± 0.023 | -0.0075 ± 0.005
24 | 3C:CD87/uPAR | 0.008 ± 0.03 | -0.007 ± 0.023 | -0.0005 ± 0.011 | -0.0075 ± 0.016 | -0.0005 ± 0.011 | -0.0105 ± 0.019
25 | BE3C:CXCL8/IL-8 | -0.0165 ± 0.0035 | -0.071 ± 0.033 | -0.0405 ± 0.056 | 0.05 ± 0.038 | 0.039 ± 0.023 | 0.0625 ± 0.00071
26 | SAg:SRB | -0.008 ± 0.025 | -0.0175 ± 0.021 | -0.045 ± 0.021 | -0.007 ± 0.0071 | -0.013 ± 0.0042 | -0.0015 ± 0.0021
27 | BE3C:EGFR | 0.0055 ± 0.011 | -0.0005 ± 0.0078 | -0.034 ± 0.0014 | 0.0085 ± 0.0021 | 0.0035 ± 0.0035 | 0.0185 ± 0.0078
28 | 4H:CD62P/P-selectin | -0.0065 ± 0.035 | -0.0155 ± 0.018 | -0.0055 ± 0.0078 | -0.002 ± 0.069 | 0.0295 ± 0.0064 | -0.0445 ± 0.026
29 | SAg:CD40 | 0.011 ± 0.03 | -0.035 ± 0.044 | -0.132 ± 0.043 | -0.009 ± 0.0071 | -0.0015 ± 0.0021 | -0.0005 ± 0.019
30 | BT:sIL-17F | -0.0185 ± 0.015 | -0.176 | -0.396 ± 0.044 | 0.044 ± 0.064 | 0.0125 ± 0.16 | -0.0705 ± 0.046
31 | SAg:CD38 | -0.0035 ± 0.049 | -0.0255 ± 0.023 | -0.0895 ± 0.033 | -0.0115 ± 0.0021 | -0.011 ± 0.021 | -0.005 ± 0.014
32 | BE3C:IL-1alpha | -0.001 ± 0.024 | -0.0185 ± 0.0035 | -0.0065 ± 0.057 | -0.019 ± 0.0028 | -0.0175 ± 0.035 | 0.004 ± 0.018
33 | BT:sIL-17A | -0.075 ± 0.069 | -0.105 ± 0.032 | -0.337 ± 0.18 | -0.024 ± 0.11 | 0.121 ± 0.12 | 0.0575 ± 0.17
34 | 3C:Proliferation | -0.04 ± 0.067 | -0.116 ± 0.061 | -0.248 ± 0.049 | 0.007 ± 0.02 | 0.013 ± 0.0085 | -0.011 ± 0.013
